From patent US6451832B2, “Benzimidazoles with antithrombotic activity” (Boehringer Ingelheim Pharma KG, priority 1999, dated 2002)

Legend:
[1] = Oral resorption of prodrugs
human citrated plasma = assay: Prolongation of the aPTT time in human citrated plasma (Biomatic B10 coagulometer); format: biochemical; conditions: concentration at which the aPTT time is doubled compared with the control, 37° C.
Procedure: were investigated as follows for their effects on prolonging the aPTT time:
Materials: plasma, from human citrated blood. PTT reagent, Boehringer Mannheim (524298), Calcium solution (0.025 mol/l), Behring Werke, Marburg (ORH 056/57), Diethylbarbiturate acetate buffer, Behring Werke, Marburg (ORWH 60/61), Biomatic B10 coagulometer, Desaga, Wiesloch.
The aPTT time was determined using a Biomatic B10 coagulometer made by Messrs. Desaga.
The test substance was placed in the test tubes prescribed by the manufacturer together with 0.1 ml of human citrated plasma and 0.1 ml of PTT reagent. The mixture was incubated for three minutes at 37° C. The clotting reaction was started by the addition of 0.1 ml of calcium solution. The time is measured using the apparatus from the addition of the calcium solution up to the clotting of the mixture. Mixtures to which 0.1 ml of DBA buffer were added were used as the controls.
According to the definition, a dosage-activity curve was used to determine the effective concentration of the substance, i.e. the concentration at which the aPTT time is doubled compared with the control.

Row | Compound | oral resorption [1] | aPTT time (ED200 in μM) (human citrated plasma)
1 | CCCOC(=O)CN[C@@](C)(C(=O)N1CCCC1)c1ccc2c(c1)nc(CNc1ccc(C(=N)NC(=O)c3ccccc3)cc1)n2C [3(2), (R)-2-[4-(N-phenylcarbonylamidino)-phenylaminomethyl]-1-methyl-5-[1-(n-propyloxycarbonylmethylamino)-1-(pyrrolidinocarbonyl)-ethyl]-benzimidazole] | good oral resorption | 
2 | CCOC(=O)CNC(C)(C(=O)N1CC=CC1)c1ccc2c(c1)nc(CNc1ccc(C(=N)N)cc1)n2C.Cl.Cl (centres unmarked) [A, 2-(4-amidinophenylaminomethyl)-1-methyl-5-[1-(ethoxycarbonylmethylamino)-1-(2,5-dihydropyrrolocarbonyl)-ethyl]-benzimidazole-dihydrochloride] |  | 0.13 µM
3 | C[C@@H]1CCCN1C(=O)[C@](C)(NCC(=O)O)c1ccc2c(c1)nc(CNc1ccc(C(=N)N)cc1)n2C.Cl.Cl [B, (R)-2-(4-amidinophenylaminomethyl)-1-methyl-5-[1-(carboxymethylamino)-1-[(R,S)-2-methyl-pyrrolidinocarbonyl]-ethyl]-benzimidazole-dihydrochloride] |  | 0.12 µM
4 | Cl.Cl.Cn1c(CNc2ccc(C(=N)N)cc2)nc2cc(C(C)(NCC(=O)O)C(=O)N3CC=CC3)ccc21 (centres unmarked) [C, 2-(4-amidinophenylaminomethyl)-1-methyl-5-[1-(carboxymethylamino)-1-(2,5-dihydropyrrolocarbonyl)-ethyl]-benzimidazole-dihydrochloride] |  | 0.22 µM
5 | CCCCOC(=O)CN[C@@](C)(C(=O)N1CCCC1)c1ccc2c(c1)nc(CNc1ccc(C(=N)NC(=O)c3ccccc3)cc1)n2C [Example 2, (R)-2-[4-(N-phenylcarbonylamidino)-phenylaminomethyl]-1-methyl-5-[1-(n-butyloxycarbonylmethylamino)-1-(pyrrolidinocarbonyl)-ethyl]-benzimidazole] | good oral resorption | 
